Measured values reported in ChEMBL document CHEMBL1125974, “Synthesis of (+/)1-Aza-carbocyclic-pyrimidine-2,3-dideoxynucleoside analogues as potential anti-HIV agents” (Bioorg Med Chem Lett, 1991).

system: MT4; assay: Tested for inhibitory activity against HIV in whole cell assay (MT-4, RF strain of HIV-1) at a 100 ug/ ml); Inactive and Not toxic; format: functional, cell-based; conditions: Homo sapiens

| SMILES | Activity |
| --- | --- |
| Nc1ccn(N2CCC(CO)C2)c(=O)n1 (stereo not drawn) | Non-toxic |
| Cc1cn(N2CCC(CO)C2)c(=O)[nH]c1=O (stereo not drawn) | Non-toxic |
| O=c1ccn(N2CCC(CO)C2)c(=O)[nH]1 (stereo not drawn) | Non-toxic |
